The values that follow come from article PMC12040169 (PLOS Biology, 2025).

This data set in a line: in vitro. To be noted: human, hela cells, % viability.
On to `CC(C)(C)OC(=O)N1CCC[C@H]1C(=O)c1cccnc1` [CBK284280], for which the viability at 28.5 h, 10 µM turned out to be 99.3%.
Take `Cc1c(C(=O)N2CCC[C@H]2[C@H](O)c2nccs2)oc2ccccc12` [CBK284281]: the viability at 28.5 h, 10 µM is 100%.
In the case of `CC(C)(C)OC(=O)N1CCC[C@@H]([C@H](O)c2nccs2)C1` [CBK284283], the viability at 28.5 h, 10 µM worked out at 81%.
`CC(C)(C)OC(=O)N1CCC[C@@H](C(=O)c2cccnc2)C1` [CBK284284]: the viability at 28.5 h, 10 µM came to 98.2%.
In the case of `O=C(c1cc2c(s1)CCC2)N1CCC[C@H]1[C@H](O)c1nccs1` [CBK284287], the viability at 28.5 h, 10 µM came out at 92.5%.
With `O=C(c1ccco1)N1CCC[C@@H]1[C@@H](O)c1cccs1` [CBK284291] the figure was 80.7%.
Consider `O=C(NCc1ccco1)[C@@H]1C=CCN1C(=O)NCc1ccccc1` [CBK284293], for which the viability at 28.5 h, 10 µM was 93%.
As to `CC[C@H](Cn1nc(-c2cccs2)ccc1=O)NC(=O)C(C)C` [CBK284296], the viability at 28.5 h, 10 µM is 93.7%.
On to `CC(C)[C@@H](Cn1nc(-c2cccs2)ccc1=O)NC(=O)C1CC1` [CBK284297], for which the viability at 28.5 h, 10 µM was 87.4%.
For `COc1ccc(OC[C@@H](N)C(C)C)cc1` [CBK284299], the viability at 28.5 h, 10 µM was determined as 93.9%.
Take `CC[C@H](Cn1ncc2ccccc2c1=O)NC(=O)CC(C)C` [CBK284305]: the viability at 28.5 h, 10 µM was found to be 89.1%.
For `COc1ccc(C(=O)[C@@H]2CCCN(C(=O)OC(C)(C)C)C2)cc1` [CBK284308], the viability at 28.5 h, 10 µM is 98.7%.
On to `COc1ccc([C@H](O)[C@@H]2CCCN(C(=O)OC(C)(C)C)C2)cc1` [CBK284311], for which the viability at 28.5 h, 10 µM was determined as 83.4%.
Turning to `O=c1ccc(-c2cccs2)nn1C[C@H]1CCCN1` [CBK284313], the viability at 28.5 h, 10 µM was 88.6%.
The result for `C=CCNC(=O)[C@@H]1C=CCN1S(=O)(=O)c1ccc(Cl)cc1` [CBK284318] reads 90.4%; that for `C[C@@H](Cn1nnc2ccccc21)NC(=O)c1cccs1` [CBK284322], 82.3%.
Turning to `O=C(NC1CC1)[C@H]1C=CCN1C(=O)c1cccs1` [CBK284324], the viability at 28.5 h, 10 µM came to 94.7%.
With `O=C(c1ccc(F)cc1)[C@H]1CCCN(C(=O)C2CC2)C1` [CBK284326] the figure was 90.5%.
Regarding `COc1ccc(C(=O)[C@H]2CCCN(C(=O)C3CC3)C2)cc1` [CBK284329], the viability at 28.5 h, 10 µM was found to be 91.4%.
For `O=C(c1ccc(F)cc1)[C@H]1CCCN(C(=O)c2cc[nH]n2)C1` [CBK284331], the viability at 28.5 h, 10 µM was found to be 87.3%.
The result for `CC(C)C(=O)N1CCC(n2c(=O)oc3ccc(Cl)cc32)CC1` [CBK284339] reads 79.9%; that for `O=C(C1CCCO1)N1CCCCCC1c1cc(-c2cccs2)on1` (stereo not drawn) [CBK284340], 97.6%.
On to `O=c1oc2ccc(Cl)cc2n1C1CCN(Cc2ccco2)CC1` [CBK284342], for which the viability at 28.5 h, 10 µM turned out to be 102%.
`O=C(c1ccco1)N1CCC(n2c(=O)oc3ccc(Cl)cc32)CC1` [CBK284343]: the viability at 28.5 h, 10 µM stood at 103%.
Turning to `O=C(C1CCCC1)N1CCC(n2c(=O)oc3ccc(Cl)cc32)CC1` [CBK284344], the viability at 28.5 h, 10 µM was found to be 96.7%.
With `O=C(c1cccs1)N1CCC(n2c(=O)oc3ccccc32)CC1` [CBK284347], the viability at 28.5 h, 10 µM amounted to 88.2%.
With `O=C(C1CCCCC1)N1CCC(n2c(=O)oc3ccccc32)CC1` [CBK284348] the figure was 97.2%.
For `O=C(C1CCCC1)N1CCC(n2c(=O)oc3ccccc32)CC1` [CBK284349], the viability at 28.5 h, 10 µM was determined as 83.7%.
For `O=C1Nc2c(cnn2-c2ccc(F)cc2)C2=NCCN12` [CBK284351], the viability at 28.5 h, 10 µM amounted to 104%.
With `O=C1NC2(CC3CCC2CC3C(=O)NC2CC2)Oc2ccccc21` (stereo not drawn) [CBK284352] the figure was 99.6%; with `Cc1nc2n(n1)CCN(C(=O)Cc1c(C)[nH]c3ccc(F)cc13)C2` [CBK284355], 83.1%.
Turning to `O=C(c1ccccc1F)N1CCC(O)(c2cccnc2F)CC1` [CBK284356], the viability at 28.5 h, 10 µM was determined as 97.1%.
For `O=C(c1cccc(F)c1)N1CCC(O)(c2cccnc2F)CC1` [CBK284357], the viability at 28.5 h, 10 µM was 92.2%.
For the molecule `Cc1ccc(C(=O)N2CCC(O)(c3cccnc3F)CC2)o1` [CBK284358], the viability at 28.5 h, 10 µM came out at 94.4%.
As to `O=C(c1c(F)cccc1F)N1CCC(O)(c2cccnc2F)CC1` [CBK284359], the viability at 28.5 h, 10 µM worked out at 97.7%.
Regarding `O=C(Cc1ccccc1Cl)N1CCC(O)(c2cccnc2F)CC1` [CBK284360], the viability at 28.5 h, 10 µM stood at 101%.
`CCS(=O)(=O)N1CC2CCCC(O)(c3ccc(F)cc3)C2C1` (stereo not drawn) [CBK284363]: the viability at 28.5 h, 10 µM came to 80.5%.
In the case of `Cc1cc(-c2cc(=O)n(Cc3ccccc3F)nc2C2CC2)on1` [CBK284366], the viability at 28.5 h, 10 µM was found to be 87.2%.
Take `CCC(=O)N1CCC(c2cc(C(F)(F)F)n3nc(C)cc3n2)CC1` [CBK284367]: the viability at 28.5 h, 10 µM was found to be 96.9%.
Turning to `OC1(c2cccnc2F)CCN(Cc2ccc(Cl)cc2)CC1` [CBK284368], the viability at 28.5 h, 10 µM was 102%.
The result for `OC1(c2cccnc2F)CCN(Cc2ccccc2F)CC1` [CBK284372] reads 91%; that for `OC1(c2cccnc2F)CCN(Cc2cccc(F)c2F)CC1` [CBK284375], 96.2%.
Turning to `Cc1ccccc1CN1CCC(O)(c2cccnc2F)CC1` [CBK284376], the viability at 28.5 h, 10 µM is 96%.
With `OC1(c2ccc(F)cc2)CCCC2CN(Cc3cccnc3)CC21` (stereo not drawn) [CBK284377] the figure was 86.8%; with `Cc1cc2ncc3c(n2n1)CC1CCC3N1C(=O)c1ccco1` (stereo not drawn) [CBK284379], 78.1%; with `c1coc(-c2cc3ncc4c(n3n2)CC2CCC4N2)c1` (stereo not drawn) [CBK284381], 84.7%.
On to `C=Cn1cccc1C(=O)N1C2CCC1c1cnc3cc(C)nn3c1C2` (stereo not drawn) [CBK284382], for which the viability at 28.5 h, 10 µM was determined as 89.2%.
The result for `CCCC(=O)N1C2CCC1c1cnc3cc(-c4ccco4)nn3c1C2` (stereo not drawn) [CBK284383] reads 96.6%; that for `O=C1Nc2cc(Cl)ccc2C2=NCCCN12` [CBK284385], 81.5%; that for `CCN(CC)C(=O)CN1C(=O)N2CCCN=C2c2ccc(Cl)cc21` [CBK284386], 91.7%.
On to `CC(C)(C)NC(=O)CN1C(=O)N2CCCN=C2c2ccc(Cl)cc21` [CBK284391], for which the viability at 28.5 h, 10 µM was 102%.
For `CN(C)C(=O)CN1C(=O)N2CCCN=C2c2ccc(Cl)cc21` [CBK284392], the viability at 28.5 h, 10 µM was 98.2%.
As for `CC1CCCCN1C(=O)CN1C(=O)N2CCCN=C2c2ccccc21` (stereo not drawn) [CBK284393], the viability at 28.5 h, 10 µM was found to be 79.8%.
The result for `CC(C)OC(=O)CN1C(=O)N2CCCN=C2c2ccccc21` [CBK284394] reads 89.4%.
With `O=C(CN1C(=O)N2CCCN=C2c2ccccc21)N1CCCCC1` [CBK284395], the viability at 28.5 h, 10 µM stood at 85.8%.
The result for `O=C(CN1C(=O)N2CCCN=C2c2ccccc21)NC1CCCC1` [CBK284397] reads 82.6%; that for `CCN(CC)C(=O)CN1C(=O)N2CCCN=C2c2ccccc21` [CBK284398], 84.4%.
For the molecule `CC(C)N(C(=O)CN1C(=O)N2CCCN=C2c2ccccc21)C(C)C` [CBK284400], the viability at 28.5 h, 10 µM amounted to 100%.
Regarding `O=C(CN1C(=O)N2CCCN=C2c2ccccc21)NCc1ccccc1` [CBK284403], the viability at 28.5 h, 10 µM was found to be 84.8%.
On to `CC(C)(C)NC(=O)CN1C(=O)N2CCCN=C2c2ccccc21` [CBK284404], for which the viability at 28.5 h, 10 µM is 89.7%.
The result for `Cc1nc2c(c(=O)[nH]1)CC[C@@H]1CN(C(=O)C3CCCCC3)C[C@H]21` [CBK284407] reads 102%; that for `Cc1ccccc1-n1ncc2c1NC(=O)N1CCCN=C21` [CBK284409], 78.7%; that for `Cc1nc2c(c(=O)[nH]1)CC[C@@H]1CN(C(=O)Cc3ccsc3)C[C@H]21` [CBK284411], 83.5%.
The result for `Cc1nc2c(c(=O)[nH]1)CC[C@@H]1CN(C(=O)CCc3ccccc3)C[C@H]21` [CBK284414] reads 95.9%.
For the molecule `O=C(c1ccco1)N1C2CCC1CC(O)(c1cccnc1F)C2` (stereo not drawn) [CBK284417], the viability at 28.5 h, 10 µM was determined as 98.6%.
Consider `O=C(c1ccccc1F)N1C2CCC1CC(O)(c1cccnc1F)C2` (stereo not drawn) [CBK284420], for which the viability at 28.5 h, 10 µM is 98.4%.
The result for `Cn1nccc1C(=O)C1CCN(C(=O)c2cccc(F)c2)CC1` [CBK284426] reads 89.2%.
As for `Cn1nccc1C(=O)C1CCN(C(=O)c2cc3c(s2)CCC3)CC1` [CBK284427], the viability at 28.5 h, 10 µM was determined as 78.6%.
On to `COc1ccc2[nH]c3c(c2c1)CCN(C(C)=O)C31CCNCC1` [CBK284429], for which the viability at 28.5 h, 10 µM came to 79.1%.
With `c1cncc(C2N3CCC4(CC3)c3[nH]c5ccccc5c3CCN24)c1` (stereo not drawn) [CBK284430], the viability at 28.5 h, 10 µM was determined as 92.8%.
For `Fc1ccc2[nH]c3c(c2c1)CCN1C(c2ccccn2)N2CCC31CC2` (stereo not drawn) [CBK284431], the viability at 28.5 h, 10 µM is 101%.
In the case of `COc1ccc2[nH]c3c(c2c1)CCN1C(c2ccco2)N2CCC31CC2` (stereo not drawn) [CBK284432], the viability at 28.5 h, 10 µM was 88%.
In the case of `O=C1NC2(CCC(=O)N(Cc3ccccc3)CC2)Nc2ccccc21` (stereo not drawn) [CBK284439], the viability at 28.5 h, 10 µM was found to be 89.8%.
For the molecule `COC(=O)C1CC2CCC1(C)CC21NC(=O)c2ccccc2N1` (stereo not drawn) [CBK284440], the viability at 28.5 h, 10 µM was determined as 100%.
In the case of `CCOC(=O)C1CC2CCC1C[C@]21NC(=O)c2ccccc2N1` (stereo partly drawn) [CBK284441], the viability at 28.5 h, 10 µM came to 93.4%.
Regarding `C=CCNC(=O)C1CC2CCC1(C)C[C@@]21NC(=O)c2ccccc2N1` (stereo partly drawn) [CBK284442], the viability at 28.5 h, 10 µM was determined as 86.6%.
Consider `Cn1cccc1CN1C[C@H]2CC[C@]3(NC(=O)c4ccccc4N3)[C@H]2C1` [CBK284443], for which the viability at 28.5 h, 10 µM amounted to 97.7%.
Turning to `CC(=O)N1CC2(CCN(C(=O)C(C)(C)C)CC2)Nc2ccccc21` [CBK284448], the viability at 28.5 h, 10 µM is 102%.
On to `O=C1N[C@@]2(CC3CCC2CC3C(=O)N2CCCC2)Nc2ccccc21` (stereo partly drawn) [CBK284449], for which the viability at 28.5 h, 10 µM came out at 91.8%.
With `CC(C)C(=O)N1C2CCC1Cn1c(nc3ccccc3c1=O)C2` (stereo not drawn) [CBK284450], the viability at 28.5 h, 10 µM amounted to 85.3%.
With `O=C(c1ccco1)N1C2CCC1Cn1c(nc3ccccc3c1=O)C2` (stereo not drawn) [CBK284452] the figure was 89.1%.

As a reminder, the viability is a read-out of living cells in per cent, often relative to untreated cells.
